Source: patent US10851062B2, “Substituted heteroaryl compound, composition containing same, and application thereof” (Shenzhen TargetRx, Inc., priority 2016, dated 2020)
Where two headings read alike, the source gives them in different places.

Key:
[1] = Metabolic stability in rat liver microsomes; type: in vitro ADME, SD rat; details: rat liver microsomes 0.5 mg/mL, compound 1 μM, NADPH, 37° C.; for microsomal CLint at 1 μM / half-life at 1 μM: Sprague-Dawley, pH 7.4; for half-life at 1 μM: read-out: t1/2 in rat liver microsomes
Experimental: (§1) Experiments in microsomes: Human liver microsomes: 0.5 mg/mL, Xenotech; Rat liver microsomes: 0.5 mg/mL, Xenotech; Coenzyme (NADPH/NADH): 1 mM, Sigma Life Science; Magnesium chloride: 5 mM, 100 mM phosphate buffer (pH 7.4).
(§2) Preparation of stock solution: Powder of the example compound 1-7 was accurately weighed and dissolved in DMSO to 5 mM. Preparation of phosphate buffer (100 mM, pH7.4): A pre-formulated 0.5M potassium dihydrogen phosphate (150 mL) was mixed with 0.5M dibasic potassium phosphate (700 mL). The pH of the mixture was adjusted to 7.4 with 0.5M dibasic potassium phosphate solution. The mixture was diluted 5-fold with ultrapure water before use, and magnesium chloride was added to obtain a phosphate buffer (100 mM) containing 100 mM potassium phosphate, 3.3 mM magnesium chloride, pH 7.4. A NADPH regeneration system solution (containing 6.5 mM NADP, 16.5 mM G-6-P, 3 U/mL G-6-PD, 3.3 mM magnesium chloride) was prepared and placed on wet ice prior to use. Preparation of stop solution: acetonitrile solution containing 50 ng/mL propranolol hydrochloride and 200 ng/mL tolbutamide (internal standard). 25057.5 μL of phosphate buffer (pH 7.4) was taken into a 50 mL centrifuge tube, to which 812.5 μL human liver microsomes were added, and mixed to obtain a liver microsome dilution solution with a protein concentration of 0.625 mg/mL. 25057.5 μL of phosphate buffer (pH 7.4) was taken into a 50 mL centrifuge tube, to which 812.5 μL SD rat liver microsomes were added, and mixed to obtain a liver microsome dilution solution with a protein concentration of 0.625 mg/mL.
(§3) Incubation of the samples: The stock solution of the respective compound was respectively diluted to 0.25 mM with an aqueous solution containing 70% acetonitrile, and used as a working solution, ready for use. 398 μL of the dilution solution of human liver microsomes or rat liver microsome were added to a 96-well incubation plate (N=2), respectively, and 2 μL of 0.25 mM working solution was added and mixed.
(§4) Metabolic stability assay: 300 μL of pre-chilled stop solution was added to each well of a 96-well deep well plate and placed on ice as a stop plate. The 96 well incubation plate and NADPH regeneration system were placed in a 37° C. water bath box, shaken at 100 rpm and pre-incubated for 5 min. 80 μL of incubation solution was taken out from each well of the incubation plate and added to the stop plate, mixed, and replenished with 20 μL of NADPH regeneration system solution as a 0-min sample. 80 μL of NADPH regeneration system solution was added to each well of the incubation plate to start the reaction and start counting. […] Separately, 100 μL of the reaction solution was taken at 10, 30, and 90 min reaction, respectively, added to a stop plate, and vortexed for 3 minutes to terminate the reaction. The stop plate was centrifuged at 5000×g at 4° C. for 4 min. 100 μL of the supernatant was added to a 96-well plate to which 100 μL of distilled water was previously added, mixed, and analyzed by LC-MS/MS.
(§5) Data analysis: The peak areas of the corresponding compound and internal standard were detected by LC-MS/MS system, and the ratio of the peak area of the compound to the internal standard was calculated. The slope was measured by plotting the natural logarithm of the percent of compound remaining versus time, and t1/2 and CLint were calculated according to the formula, where V/M is equal to 1/protein concentration.

[2] = Metabolic stability in human liver microsomes; type: in vitro ADME; details: pH 7.4, human liver microsomes 0.5 mg/mL, compound 1 μM, NADPH, 37° C.; for half-life at 1 μM: read-out: t1/2 in human liver microsomes
Experimental: as §1, §2, §3, §4, §5

[3] = Pharmacokinetic evaluation in rats; type: in vivo, Sprague-Dawley rats; details: rat; for AUC(0-inf) / AUC(0-t) / Tmax / MRT inf / F / half-life / Cmax: male, Sprague-Dawley; for AUC(0-inf) / AUC(0-t) / Tmax / MRT inf / Cmax: plasma; for MRT inf: read-out: MRTINF_pred; for F / half-life: in vivo
Experimental: 6 male Sprague-Dawley rats (7-8 weeks old, and weighing approximately 210 g) were divided into 2 groups with 3 rats in each group. The rats were intravenously or orally administered a single dose of compound (3 mg/kg intravenously, 10 mg/kg orally) to compare pharmacokinetic differences.
The rats were raised on standard food and water. Fasting was started 16 hours before the test. The drug was dissolved with PEG400 and dimethyl sulfoxide. The blood samples were collected from eyelids at the time points of 0.083 hours, 0.25 hours, 0.5 hours, 1 hour, 2 hours, 4 hours, 6 hours, 8 hours, 12 hours, and 24 hours after administration.
Rats were briefly anesthetized after inhalation of diethyl ether and 300 μL of blood sample was collected from the eyelids into test tubes. There was 30 μL of 1% heparin salt solution in the test tube. Tubes were dried at 60° C. overnight before use. After the blood sample was collected at a later time point, the rats were sacrificed after ether anesthesia.
Immediately after the collection of the blood sample, the test tube was gently inverted at least 5 times to ensure sufficient mixing and then placed on ice. The blood sample was centrifuged at 5000 rpm at 4° C. for 5 minutes to separate the plasma from the red blood cells. 100 μL of plasma was aspirated into a clean plastic centrifuge tube with a pipette, marking with the name of the compound and time point. Plasma was stored at −80° C. prior to analysis. The concentration of the compound of the present disclosure in plasma was determined by LC-MS/MS. The pharmacokinetic parameters were calculated based on the blood concentration of each animal at different time points.

Row | microsomal CLint at 1 μM [1] [µL/min/mg] | half-life at 1 μM [1] [h] | microsomal CLint at 1 μM [2] [µL/min/mg] | half-life at 1 μM [2] [h] | AUC(0-inf) ([3]; IV, 3 mg/kg single dose) [µg·h/mL] | AUC(0-t) ([3]; IV, 3 mg/kg single dose) [µg·h/mL] | Tmax ([3]; IV, 3 mg/kg single dose) [h] | MRT inf ([3]; IV, 3 mg/kg single dose) [h] | AUC(0-inf) ([3]; PO, 10 mg/kg single dose) [µg·h/mL] | AUC(0-t) ([3]; PO, 10 mg/kg single dose) [µg·h/mL] | Tmax ([3]; PO, 10 mg/kg single dose) [h] | MRT inf ([3]; PO, 10 mg/kg single dose) [h] | F [3] [%] | half-life ([3]; iv, 3 mg/kg) [h] | half-life ([3]; po, 10 mg/kg) [h] | Cmax ([3]; IV, 3 mg/kg single dose) [ng/mL] | Cmax ([3]; PO, 10 mg/kg single dose) [ng/mL] | Vz_pred ([3]; IV, 3 mg/kg single dose) [L/kg] | Vz_pred ([3]; PO, 10 mg/kg single dose) [L/kg] | Compound | further results
1 | < 8.6 | > 2.42 | < 8.6 | > 2.42 | – | – | – | – | – | – | – | – | – | – | – | – | – | – | – | [2H]c1c([2H])c([2H])c(Oc2ccc3c(O)c(C(=O)NC([2H])([2H])C(=O)O)nc(C)c3c2)c([2H])c1[2H] [Compound 48, N-[(4-hydroxy-1-methyl-7-(d5-phenoxy))-3-(3-isoquinolinyl)carbonyl]-2,2-d2-glycine] | –
2 | < 8.6 | > 2.42 | < 8.6 | > 2.42 | – | – | – | – | – | – | – | – | – | – | – | – | – | – | – | [2H]c1cc([2H])c(Oc2ccc3c(O)c(C(=O)NC([2H])([2H])C(=O)O)nc(C)c3c2)c([2H])c1 [Compound 47] | –
3 | < 8.6 | > 2.42 | < 8.6 | > 2.42 | – | – | – | – | – | – | – | – | – | – | – | – | – | – | – | [2H]c1cccc(Oc2ccc3c(O)c(C(=O)NCC(=O)O)nc(C)c3c2)c1 [Compound 46, N-[(4-hydroxy-1-methyl-7-(3-d-phenoxy)-3-isoquinolinyl)carbonyl]glycine] | –
4 | < 8.6 | > 2.42 | < 8.6 | > 2.42 | 49.5 | 49.4 | 0.08 | 2.85 | 222 | 218 | 2.67 | 5.83 | 132.44 | 2.89 | 3.33 | 19500 | 25400 | 0.25 | 0.24 | [2H]c1cccc(Oc2ccc3c(O)c(C(=O)NC([2H])([2H])C(=O)O)nc(C)c3c2)c1 [Compound 49, N-[(4-hydroxy-1-methyl-7-(3-d-phenoxy)-3-isoquinolinyl)carbonyl]-2,2-d2-glycine] | –
5 | < 8.6 | > 2.42 | < 8.6 | > 2.42 | 63.8 | 63.8 | 0.08 | 2.82 | 196 | 196 | 2.83 | 5.03 | 92.21 | 2.08 | 2.78 | 21100 | 22100 | 0.15 | 0.20 | Cc1nc(C(=O)NCC(=O)O)c(O)c2ccc(Oc3ccccc3)cc12 [FG-4592, reference compound] | –
6 | < 8.6 | > 2.42 | < 8.6 | > 2.42 | – | – | – | – | – | – | – | – | – | – | – | – | – | – | – | [2H]C([2H])(NC(=O)c1nc(C([2H])([2H])[2H])c2cc(Oc3ccccc3)ccc2c1O)C(=O)O [Compound 36, N-[(4-hydroxy-1-(d3-methyl)-7-phenoxy-3-isoquinolinyl)carbonyl]-2,2-d2-glycine] | –

Second part, the compound before the results:

Row | Compound | microsomal CLint at 1 μM [1] [µL/min/mg] | half-life at 1 μM [1] [h] | microsomal CLint at 1 μM [2] [µL/min/mg] | half-life at 1 μM [2] [h] | AUC(0-inf) ([3]; IV, 3 mg/kg single dose) [µg·h/mL] | AUC(0-t) ([3]; IV, 3 mg/kg single dose) [µg·h/mL] | Tmax ([3]; IV, 3 mg/kg single dose) [h] | MRT inf ([3]; IV, 3 mg/kg single dose) [h] | AUC(0-inf) ([3]; PO, 10 mg/kg single dose) [µg·h/mL] | AUC(0-t) ([3]; PO, 10 mg/kg single dose) [µg·h/mL] | Tmax ([3]; PO, 10 mg/kg single dose) [h] | MRT inf ([3]; PO, 10 mg/kg single dose) [h] | F [3] [%] | half-life ([3]; iv, 3 mg/kg) [h] | half-life ([3]; po, 10 mg/kg) [h] | Cmax ([3]; IV, 3 mg/kg single dose) [ng/mL] | Cmax ([3]; PO, 10 mg/kg single dose) [ng/mL] | Vz_pred ([3]; IV, 3 mg/kg single dose) [L/kg] | Vz_pred ([3]; PO, 10 mg/kg single dose) [L/kg] | further results
7 | [2H]Cc1nc(C(=O)NCC(=O)O)c(O)c2ccc(Oc3ccccc3)cc12 [Compound 13, N-[(4-hydroxy-1-d-methyl-7-phenoxy-3-isoquinolinyl)carbonyl] glycine] | < 8.6 | > 2.42 | < 8.6 | > 2.42 | – | – | – | – | – | – | – | – | – | – | – | – | – | – | – | –
8 | [2H]C([2H])(NC(=O)c1nc(C)c2cc(Oc3ccccc3)ccc2c1O)C(=O)O [Compound 11, N-[(4-hydroxy-1-methyl-7-phenoxy-3-isoquinolinyl)carbonyl]-2,2-d2-glycine] | < 8.6 | > 2.42 | – | – | 51.6 | 51.6 | 0.08 | 2.84 | 261 | 260 | 4 | 5.87 | 151.17 | 2.43 | 2.77 | 19000 | 24600 | 0.21 | 0.16 | –
9 | N-[(4-hydroxy-1-(d-methyl)-7-phenoxy-3-isoquinolinyl) carbonyl]-2,2-d2-glycine [Compound 34] | – | – | – | – | – | – | – | – | – | – | – | – | – | – | – | – | – | – | – | CLint in rat liver microsomes [1]: <8.6 µL/min/mg; t1/2 in rat liver microsomes [1]: >2.42 h
10 | [2H]c1cc([2H])c(Oc2ccc3c(O)c(C(=O)NCC(=O)O)nc(C)c3c2)c([2H])c1 [Compound 23] | < 8.6 | > 2.42 | < 8.6 | > 2.42 | – | – | – | – | – | – | – | – | – | – | – | – | – | – | – | –
11 | [2H]c1c([2H])c([2H])c(Oc2ccc3c(O)c(C(=O)NCC(=O)O)nc(C)c3c2)c([2H])c1[2H] [Compound 32, N-[(4-hydroxy-1-methyl-7-(d5-phenoxy)-3-isoquinolinyl)carbonyl] glycine] | < 8.6 | > 2.42 | < 8.6 | > 2.42 | 55.9 | 55.9 | 0.75 | 3.14 | 185 | 185 | 0.83 | 5.33 | 99.05 | 2.49 | 2.43 | 12200 | 17700 | 0.18 | 0.21 | –
